Laboratory results from patent publication US20240287079A1, “6-AMINOPYRAZOLOPYRIMIDINE COMPOUND AND PHARMACEUTICAL USE THEREOF” (Japan Tobacco Inc., priority 2021, published 2024).
pIC50: −log10 of the molar value.

Target: NLRP3 inflammasome (Homo sapiens (Human), UniProt Q96P20)
Assay: Evaluation of NLRP3 inflammasome inhibitory activity (inhibition of IL-1β production in LPS/Nigericin-stimulated THP1-Null cells)
Format: cell-based
Conditions: IL-1β production in THP1-Null cells; for pIC50: PMA, LPS 1 μg/mL, Nigericin 7.5 μmol/L, AlphaLISA
Method: The NLRP3 inflammasome inhibitory activity of test compounds were evaluated on the basis of the inhibitory activity of the IL-1β production in THP1-Null cells (Product Number: thp-null, InvivoGen). […] The supernatant of the culture was removed, and thereto was added media for assay (25 μL/well) containing 1 μg/mL Lipopolysaccharides (Product Number: L2654, Sigma-Aldrich (registered trademark)). […] The supernatant of the culture was removed. […] A solution containing a test compound (20 μL/well) was added to test compound-setting wells. […] The supernatant of the culture was cryonically stored (set at −20° C.) until measurement of IL-1β.
The amount of IL-1β in the culture supernatant was quantitated with AlphaLISA(registered trademark) Human IL-1β Detection Kit (Product Number: AL220C, Perkin Elmer). Fluorescence intensity was measured with a microplate reader EnSpier (Model number: 2300-00J, Perkin Elmer) or EnSight(Model number: HH34000000, Perkin Elmer) according to procedure manuals attached thereto. Inhibition rates of the test compound-setting wells were calculated on the basis of 100% for the blank-setting wells and 0% for the control-setting wells.

Sequence of NLRP3 inflammasome (Q96P20 whole entry): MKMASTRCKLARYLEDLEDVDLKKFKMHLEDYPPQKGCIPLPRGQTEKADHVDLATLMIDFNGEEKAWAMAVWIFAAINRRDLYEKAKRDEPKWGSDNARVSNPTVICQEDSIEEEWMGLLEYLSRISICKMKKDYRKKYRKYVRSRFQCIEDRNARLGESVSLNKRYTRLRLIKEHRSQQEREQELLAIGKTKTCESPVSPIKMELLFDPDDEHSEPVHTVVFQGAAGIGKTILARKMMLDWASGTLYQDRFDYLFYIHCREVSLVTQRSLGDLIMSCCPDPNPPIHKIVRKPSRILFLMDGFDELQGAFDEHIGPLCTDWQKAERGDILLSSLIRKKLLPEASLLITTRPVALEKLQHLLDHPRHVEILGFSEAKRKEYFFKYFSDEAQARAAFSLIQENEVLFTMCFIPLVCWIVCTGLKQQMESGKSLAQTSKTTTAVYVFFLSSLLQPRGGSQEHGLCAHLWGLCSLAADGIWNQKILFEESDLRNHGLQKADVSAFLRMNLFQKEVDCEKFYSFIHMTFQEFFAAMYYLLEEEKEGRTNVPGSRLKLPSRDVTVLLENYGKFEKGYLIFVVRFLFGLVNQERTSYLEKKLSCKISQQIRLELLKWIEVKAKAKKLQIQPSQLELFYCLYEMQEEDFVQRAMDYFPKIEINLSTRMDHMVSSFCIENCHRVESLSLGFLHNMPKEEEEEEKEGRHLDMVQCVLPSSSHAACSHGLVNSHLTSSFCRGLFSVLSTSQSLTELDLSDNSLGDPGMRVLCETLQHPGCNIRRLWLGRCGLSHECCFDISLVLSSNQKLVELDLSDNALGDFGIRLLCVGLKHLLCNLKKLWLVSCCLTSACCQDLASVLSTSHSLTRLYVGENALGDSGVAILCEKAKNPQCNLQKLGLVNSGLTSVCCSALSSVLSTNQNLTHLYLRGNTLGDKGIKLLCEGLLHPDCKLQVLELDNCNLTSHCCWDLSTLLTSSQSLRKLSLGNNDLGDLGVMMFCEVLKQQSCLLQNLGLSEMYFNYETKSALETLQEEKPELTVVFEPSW

Row | Compound | pIC50 | inhibition at 2.4 µM (test compound 2.4 μM) [%]
1 | Cc1cc(Br)cc(C)c1-n1cc2c(=O)[nH]c(NCC3CC3)nc2n1 [Example 228] | 8.11 | 
2 | O=c1[nH]c(N2CCCC2)nc2nn(-c3ccccc3Cl)cc12 [Example 1] | 6.47 | 
3 | O=c1[nH]c(N2CCCC2)nc2nn(-c3ccc(Cl)cc3F)cc12 [Example 97] | 7.57 | 
4 | Cc1ccc(C)c(-n2cc3c(=O)[nH]c(N4CCCC4)nc3n2)c1 [Example 46] | 6.54 | 
5 | Cc1cc(C)c(-n2cc3c(=O)[nH]c(N4CCN(C(=O)OC(C)(C)C)CC4)nc3n2)c(C)c1 [Example 101] | 8.25 | 
6 | Cc1cc(Br)cc(C)c1-n1cc2c(=O)[nH]c(N3CC(F)C3)nc2n1 [Example 198] | 8.10 | 
7 | O=c1[nH]c(N2CCOCC2)nc2nn(-c3ccc(Br)cc3OC3CCC3)cc12 [Example 305] | 7.32 | 
8 | CCc1cc(C)c(-n2cc3c(=O)[nH]c(N4CCOCC4)nc3n2)c(C)c1 [Example 292] | 7.55 | 
9 | O=c1[nH]c(N2CCOCCO2)nc2nn(-c3ccc(C4CC4)cc3C(F)(F)F)cc12 [Example 356] | 7.64 | 
10 | Cc1cc(C(F)F)cc(C)c1-n1cc2c(=O)[nH]c(N3CCOCC3)nc2n1 [Example 329] | 7.35 | 
11 | Cc1cc(Br)ccc1-n1cc2c(=O)[nH]c(N3CCN(c4ncccn4)CC3)nc2n1 [Example 149] | 7.68 | 
12 | CNc1nc2nn(-c3ccc(C)cc3C)cc2c(=O)n1C [Example 80] | 6.24 | 
13 | Cc1cc(C2CC2)cc(C)c1-n1cc2c(=O)[nH]c(N3CCCC3)nc2n1 [Example 286] | 8.38 | 
14 | Cc1cccc(C)c1-n1cc2c(=O)[nH]c(N3CC(OCC(F)(F)F)C3)nc2n1 [Example 51] | 5.66 | 
15 | COC1CCN(c2nc3nn(-c4ccc(Br)cc4C)cc3c(=O)[nH]2)C1 (racemic) [Example 70] | 7.41 | 
16 | O=c1[nH]c(N2CCCC2)nc2nn(-c3ccccc3C(F)(F)F)cc12 [Example 8] | 6.23 | 
17 | COc1ccc(-n2cc3c(=O)[nH]c(N4CCCC4)nc3n2)c(Br)c1 [Example 307] | 7.96 | 
18 | Cc1cc(C)c(-n2cc3c(=O)[nH]c(N4CCCOCC4)nc3n2)c(C)c1 [Example 100] | 7.70 | 
19 | CNc1nc2nn(-c3c(C)cc(Br)cc3C)cc2c(=O)[nH]1 [Example 185] | 8.25 | 
20 | CO[C@@H]1CCN(c2nc3nn(-c4c(C)cc(C5CC5)cc4C)cc3c(=O)[nH]2)C1 [Example 317] | 8.28 | 

Row | Compound | pIC50 | inhibition at 2.4 µM (test compound 2.4 μM) [%]
21 | Cc1cc(C2CC2)cc(C)c1-n1cc2c(=O)[nH]c(N3CCOCCO3)nc2n1 [Example 349, 2-(4-cyclopropyl-2,6-dimethylphenyl)-6-(1,5,2-dioxazepan-2-yl)-2,5-dihydro-4H-pyrazolo[3,4-d]pyrimidin-4-one] | 7.72 | 
22 | Cc1cc(C2CC2)cc(Cl)c1-n1cc2c(=O)[nH]c(N3C[C@@H]4C[C@H]3CO4)nc2n1 [Example 288] | 8.00 | 
23 | CC(C)c1ccccc1-n1cc2c(=O)[nH]c(N3CCCC3)nc2n1 [Example 31] | 6.27 | 
24 | O=c1[nH]c(N2C[C@@H]3C[C@H]2CO3)nc2nn(-c3ccc(Br)cc3C(F)(F)F)cc12 [Example 260] | 7.77 | 
25 | Cc1cc(Br)cc(C)c1-n1cc2c(=O)[nH]c(N3CCC[C@H]3C)nc2n1 [Example 284] | 7.92 | 
26 | Cc1cc(C2CCC2)cc(C)c1-n1cc2c(=O)[nH]c(N3CCOCC3)nc2n1 [Example 270] | 7.08 | 
27 | COc1ccc(CNc2cc(C(F)(F)F)cc(Cl)c2-n2cc3c(=O)[nH]c(N4CCOCC4)nc3n2)c(OC)c1 [Example 269] |  | 25
28 | CN(C)c1nc2nn(-c3ccccc3Cl)cc2c(=O)[nH]1 [Example 4] | 5.77 | 
29 | O=c1[nH]c(N2CCCOCC2)nc2nn(-c3ccc(C(F)(F)F)cc3Cl)cc12 [Example 129] | 7.46 | 
30 | O=c1[nH]c(N2CCOCC2)nc2nn(-c3ccc(C4CC4)cc3CC3CC3)cc12 [Example 321] | 7.54 | 
31 | O=c1[nH]c(N2CCOCC2)nc2nn(-c3ccc(Br)cc3OC(F)(F)F)cc12 [Example 206] | 7.92 | 
32 | Cc1cc(C2CC2)cc(C)c1-n1cc2c(=O)[nH]c(N3CCOC[C@H]3C)nc2n1 [Example 275] | 8.07 | 
33 | O=c1[nH]c(N2CCCC2)nc2nn(-c3c(Cl)cccc3Cl)cc12 [Example 30, 2-(2,6-dichlorophenyl)-6-(pyrrolidin-1-yl)-2,5-dihydro-4H-pyrazole[3,4-d]pyrimidin-4-one] | 5.96 | 
34 | Cc1cc(C(F)(F)F)cc(C)c1-n1cc2c(=O)[nH]c(N3CCCC3)nc2n1 [Example 281] | 7.89 | 
35 | O=c1[nH]c(N2CCOCC2)nc2nn(-c3ccc(Br)cc3C(O)C3CC3)cc12 (racemic) [Example 150] | 7.80 | 
36 | COc1cc(C)c(-n2cc3c(=O)[nH]c(N4CCOCC4)nc3n2)c(C)c1 [Example 253] | 7.62 | 
37 | C=C(C)c1ccc(-n2cc3c(=O)[nH]c(N4CCCC4)nc3n2)c(C)c1 [Example 81] | 7.96 | 
38 | Cc1cc(C2(C(F)(F)F)CC2)cc(C)c1-n1cc2c(=O)[nH]c(N3CCOCC3)nc2n1 [Example 276] | 6.66 | 
39 | O=c1[nH]c(N2CCOCC2)nc2nn(-c3ccc(C(F)(F)F)cc3Cl)cc12 [Example 128] | 7.55 | 
40 | Cc1cc(Br)cc(C)c1-n1cc2c(=O)[nH]c(NCC(F)(F)F)nc2n1 [Example 266] | 7.85 | 

Row | Compound | pIC50 | inhibition at 2.4 µM (test compound 2.4 μM) [%]
41 | Cc1cc(C2CC2)cc(Cl)c1-n1cc2c(=O)[nH]c(N3CC4CC(C3)O4)nc2n1 [Example 297] | 8.00 | 
42 | CCCCNc1nc2nn(-c3ccccc3C)cc2c(=O)[nH]1 [Example 61] | 6.17 | 
43 | CCCN(C)c1nc2nn(-c3ccccc3C)cc2c(=O)[nH]1 [Example 18] | 4.92 | 
44 | Cc1ccc(-n2cc3c(=O)[nH]c(N4CCCC4)nc3n2)cc1C [Example 52] | 5.68 | 
45 | CC(C)c1cc(C(F)(F)F)cnc1-n1cc2c(=O)[nH]c(N3CCOCC3)nc2n1 [Example 236] | 6.14 | 
46 | Cc1ccccc1-n1cc2c(=O)[nH]c(N3CCC(F)(F)C3)nc2n1 [Example 12] | 6.42 | 
47 | COc1cc(Br)ccc1-n1cc2c(=O)[nH]c(N3CCOCC3)nc2n1 [Example 304] | 7.19 | 
48 | Cc1cc(Cl)cc(C(O)C2CC2)c1-n1cc2c(=O)[nH]c(N3CCOCC3)nc2n1 (racemic) [Example 162] | 6.82 | 
49 | O=c1[nH]c(N2CCCC2)nc2nn(-c3ccccc3)cc12 [Example 2] | 5.05 | 
50 | CS(=O)(=O)N1CCCN(c2nc3nn(-c4ccc(C(F)(F)F)cc4Cl)cc3c(=O)[nH]2)CC1 [Example 135] | 7.37 | 
51 | COCC(=O)N1CC2CC1CN2c1nc2nn(-c3c(C)cc(Br)cc3C)cc2c(=O)[nH]1 (racemic) [Example 220] | 7.64 | 
52 | Cc1cc(C2CC2)cc(C)c1-n1cc2c(=O)[nH]c(N3CCCOCC3)nc2n1 [Example 326] | 8.12 | 
53 | Cc1cc(C2CC2)ccc1-n1cc2c(=O)[nH]c(N3CCCC3)nc2n1 [Example 82] | 8.39 | 
54 | Cc1ccccc1-n1cc2c(=O)[nH]c(N(C)C(C)C)nc2n1 [Example 23] | 5.72 | 
55 | Cc1cc(Br)cc(C)c1-n1cc2c(=O)[nH]c(N(CCO)CCO)nc2n1 [Example 361] | 7.89 | 
56 | Cc1cc(Br)cc(C)c1-n1cc2c(=O)[nH]c(N3CC4CC3CN4S(C)(=O)=O)nc2n1 (racemic) [Example 219] | 7.72 | 
57 | O=c1[nH]c(N2C[C@H]3C[C@@H]2CO3)nc2nn(-c3ccc(C4CC4)cc3C(F)(F)F)cc12 [Example 262] | 8.01 | 
58 | COC1CCN(c2nc3nn(-c4c(C)cc(C)cc4C)cc3c(=O)[nH]2)CC1 [Example 106] | 7.02 | 
